Measured values: article PMC7849013, “Structural Investigations of the Inhibition of Escherichia coli AmpC β-Lactamase by Diazabicyclooctanes” (Antimicrobial Agents and Chemotherapy, 2021)
Values after ≈ are worked out from the molar mass of the structure shown. Values joined by “and” are separate entries in the source; they are usually repeats but may differ in a detail not shown here. Equal entries are not always repeated.

Experiments:
PDC-3 = tested on: PDC-3; parameters: method as in earlier work; settings: ref [2]; cited from earlier work
[1] = tested on: DH5α Escherichia coli (wt); test: MIC by broth microdilution, wild-type strain; assay type: cell-based; settings: compound alone, read-out: Minimum Inhibitory Concentration
Experimental: (§1) MICs were determined by broth microdilutions in triplicate and interpreted using published guidelines described by the CLSI. […] DBOs were also tested as the sole administered antimicrobial (0.25 to 256 μg ml^−1) against both strains (Table S5).

ADC-7 = biological target: ADC-7; parameters: method as in earlier work; settings: ref [2], cited from earlier work; for Ki: read-out: Kiapp
E. coli ATCC 25922 = tested on: E. coli ATCC 25922; parameters: method as in PMID 30861342; settings: E. coli ATCC 25922, compound alone; cited from earlier work
[2] = biological target: T1, AmpC SBL from Escherichia coli (AmpCEC) (Escherichia coli, UniProt P00811); test: Steady-state competitive inhibition kinetics of AmpCEC with fluorescent substrate FC-5 (kobs, Kiapp, k2/K); assay type: biochemical
T1 construct: made in house
Experimental: (§2) Assays were performed and analyzed as described previously ([34]). In summary, assays in the presence of inhibitors were carried out under steady-state conditions monitoring hydrolysis of the fluorescent substrate FC-5 ([33]) in 100 mM phosphate buffer, pH 7.5, supplemented with 0.01% (vol/vol) Triton X-100. Fluorescence was measured using a PHERAstar (BMG Labtech) plate reader, recording emission spectra at an excitation wavelength of 380 nm and emission wavelength of 460 nm. […] The pseudo first-order rate constant, kobs, and the apparent inhibition constant, Kiapp, were obtained by assaying 100 nM AmpCEC with 5 μM FC-5 in the presence of various concentrations of the inhibitor. Reactions were initiated by addition of AmpCEC and immediately monitored continuously over 30 s. […] The second-order rate constant (k2/K) was obtained from linear regression of measured kobs values against inhibitor concentrations (see Fig. S3b in the supplemental material) and corrected by the Michaelis constant (Km) and concentration of the substrate. Kiapps ([50]) were determined by linear regression of the reciprocals of the initial rates against inhibitor concentration (Fig. S3a) and corrected using the experimentally determined substrate Km and substrate concentration. Inhibitor off rates (koff) were measured using the jump-dilution method ([51]); thus, AmpCEC (1 μM) was incubated with the respective inhibitor (10 μM) for 30 min at room temperature and diluted 100,000-fold in the assay buffer to a final enzyme concentration of 10 pM and then immediately assayed using 25 μM (final concentration) FC-5. Off rates were determined from exponential regression in relation to turnover of no enzyme and no inhibitor controls (Fig. S3c). Half-lives of the enzyme-inhibitor complexes were directly calculated from the measured koff values.
Figure S1: Progression curves used in kobs determinations. AmpCEC (100 nM) was assayed using FC-5 (5 μM)
Reactions were initiated by addition of
AmpCEC and immediately monitored, as described in Materials and Methods. Buffer: 50 mM phosphate buffer, pH
7.5 and 0.01% (v/v) Triton X-100. Curves were fitted to Equation 5.
(A) Determination of Kiapp values
for AmpCEC inhibition by DBOs. […]

[3] = tested on: DH5α E. coli containing the pAD7-AmpCEC plasmid; test: MIC by broth microdilution, AmpCEC-producing strain; assay type: cell-based, Escherichia coli; settings: for MIC: Escherichia coli, read-out: Minimum Inhibitory Concentration, compound alone, DH5α pAD7 AmpCEC
Experimental: as §1

PDC-1 = tested on: PDC-1; parameters: method as in earlier work; settings: ref [2]; cited from earlier work
[4] = biological target: T1, AmpC SBL from Escherichia coli (AmpCEC); test: AmpCEC inhibition pIC50 with varied preincubation time and pH (FC-5); assay type: biochemical
Experimental: as §2
pre-incubated with the inhibitors for the indicated times at room temperature and assayed using 5 μM FC-5 [1].
(1 picture or pasted object on this page, not shown here)
AmpCEC (500 pM) was preincubated
with the inhibitors for the indicated times at room temperature, then assayed using 5 μM FC-5 [1]. Buffer: 50 mM
regression (Figure S2), as described in the Materials and Methods.

[5] = biological target: T1, AmpC SBL from Escherichia coli (AmpCEC); test: as above; assay type: biochemical; remark: listed apart in the source
[6] = biological target: T1, AmpC SBL from Escherichia coli (AmpCEC); test: Jump-dilution off-rate of AmpCEC-DBO carbamoyl complexes (FC-5); assay type: biochemical; settings: jump dilution 100,000-fold; 1 μM AmpCEC preincubated with 10 μM DBO 30 min at room temperature; 25 μM FC-5
Experimental: as §2, with “Inhibitor off rates (koff) were measured using the jump-dilution method ([51]); thus, AmpCEC (1 μM) was incubated with the respective inhibitor (10 μM) for 30 min at room temperature and diluted 100,000-fold in the assay buffer to a final enzyme concentration of 10 pM and then immediately assayed using 25 μM (final concentration) FC-5.” left out, “Half-lives of the enzyme-inhibitor complexes were directly calculated from the measured koff values.” left out

[7] = [DBO] 5.00 µM, 100 nM AmpCEC, 5 μM FC-5
[8] = pIC50, 0 min preincubation, pH 7.5, 500 pM AmpCEC, 5 μM FC-5
[9] = pIC50, 10 min preincubation, pH 7.5
[10] = pIC50, 30 min preincubation, pH 7.5
[11] = pIC50, 60 min preincubation, pH 7.5
[12] = pIC50, 360 min preincubation, pH 7.5, 500 pM AmpCEC, 5 μM FC-5
[13] = pIC50, 0 min preincubation, pH 7.0
[14] = pIC50, 0 min preincubation, pH 8.0
[15] = pIC50, 10 min preincubation, pH 7.0
[16] = pIC50, 10 min preincubation, pH 8.0
[17] = pIC50, 30 min preincubation, pH 7.0
[18] = pIC50, 60 min preincubation, pH 7.0
[19] = pIC50, 60 min preincubation, pH 8.0
[20] = pIC50, 360 min preincubation, pH 7.0
[21] = pIC50, 360 min preincubation, pH 8.0

T1 sequence (P00811 20-377): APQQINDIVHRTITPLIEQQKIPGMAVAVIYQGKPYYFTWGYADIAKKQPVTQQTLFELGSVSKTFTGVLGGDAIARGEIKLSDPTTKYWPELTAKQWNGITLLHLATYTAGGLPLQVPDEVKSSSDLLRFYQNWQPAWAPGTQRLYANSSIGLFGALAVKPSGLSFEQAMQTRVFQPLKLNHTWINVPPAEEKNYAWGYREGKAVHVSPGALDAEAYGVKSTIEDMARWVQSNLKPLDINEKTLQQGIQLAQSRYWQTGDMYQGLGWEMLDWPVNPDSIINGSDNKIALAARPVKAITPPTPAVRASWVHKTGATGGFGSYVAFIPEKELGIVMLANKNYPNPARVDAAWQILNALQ

## NC(=O)[C@@H]1CC[C@@H]2CN1C(=O)N2OS(=O)(=O)O [AVI, avibactam]
PDC-3
  k2/K: 29 (M-1s-1) x 10 3
  t1/2: 14 min
[1]
  MIC: 16 µg/mL (≈ 60.3 µM)
ADC-7
  Ki: 19000 ± 2000 nM
  k2/K: 3.9 ± 0.4 (M-1s-1) x 10 3
  t1/2: 33 ± 5 min
E. coli ATCC 25922
  MIC: 16 µg/mL (≈ 60.3 µM)
[2]; [DBO] 0.04 µM
  kobs: 0.135 ± 0.002
[2]; [DBO] 0.16 µM
  kobs: 0.134 ± 0.001
[2]; [DBO] 0.31 µM
  kobs: 0.135 ± 0.006
[2]; [DBO] 0.63 µM
  kobs: 0.144 ± 0.002
[2]; [DBO] 1.25 µM
  kobs: 0.168 ± 0.008
[2]; [7]
  kobs: 0.305 ± 0.004
[3]
  MIC: 16 µg/mL (≈ 60.3 µM)
PDC-1
  k2/K: 2900 (M-1s-1) x 10 3
  t1/2: 6 min

## NCCONC(=O)[C@@H]1CC[C@@H]2CN1C(=O)N2OS(=O)(=O)O [NAC, nacubactam]
[1]
  MIC: 2 µg/mL (≈ 6.17 µM)
[4]; [8]
  IC50: 178 nM
[4]; [9]
  IC50: 66.1 nM
[4]; [10]
  IC50: 34.7 nM
[4]; [11]
  IC50: 13.8 nM
[4]; [12]
  IC50: 2.95 nM
E. coli ATCC 25922
  MIC: 2 µg/mL (≈ 6.17 µM)
[2]
  Ki: 5000 ± 100 nM
[2]; [DBO] 0.04 µM
  kobs: 0.142 ± 0.003
[2]; [DBO] 0.16 µM
  kobs: 0.142 ± 0.003
[2]; [DBO] 0.31 µM
  kobs: 0.153 ± 0.005
[2]; [DBO] 0.63 µM
  kobs: 0.153 ± 0.002
[2]; [DBO] 1.25 µM
  kobs: 0.185 ± 0.003
[2]; [7]
  kobs: 0.393 ± 0.008
[2]; pH 7.5, read-out: k2/K (carbamoylation rate)
  kinact/KI: 52000 ± 2000 M⁻¹ s⁻¹
[5]; [13]
  IC50: 200 nM
[5]; [14]
  IC50: 141 nM
[5]; [15]
  IC50: 91.2 nM
[5]; [16]
  IC50: 58.9 nM
[5]; [17]
  IC50: 31.6 nM
[5]; [18]
  IC50: 16.2 nM
[5]; [19]
  IC50: 15.1 nM
[5]; [20]
  IC50: 6.46 nM
[5]; [21]
  IC50: 5.13 nM
[3]
  MIC: 4 µg/mL (≈ 12.3 µM)
[3]; compound alone, DH5α pAD7 AmpCEC
  Minimum Inhibitory Concentration: 2 µg/mL
[6]
  koff (decarbamoylation rate): 0.049 s^−1, ×10^−3 and 0.049 ± 0.01 s^−1, ×10^−3

## CC(C)(O/N=C(\C(=O)N[C@@H]1C(=O)N2C(C(=O)[O-])=C(C[n+]3ccccc3)CS[C@H]12)c1csc(N)n1)C(=O)O [CAZ, ceftazidime]
[1]
  MIC: 1 µg/mL (≈ 1.83 µM)
[3]
  MIC: 256 µg/mL (≈ 468 µM)

## O=C(NNC(=O)[C@@H]1CC[C@@H]2CN1C(=O)N2OS(=O)(=O)O)[C@@H]1CCCNC1 [ZID, zidebactam]
PDC-3
  k2/K: 480 ± 70 (M-1s-1) x 10 3
  t1/2: 3 ± 0.4 min
[1]
  MIC: ≤ 0.25 µg/mL
ADC-7
  Ki: 2300 ± 300 nM
  k2/K: 35 ± 4 (M-1s-1) x 10 3
  t1/2: 11 ± 1 min
[4]; [8]
  IC50: 25.1 nM
[4]; [9]
  IC50: 11 nM
[4]; [10]
  IC50: 7.59 nM
[4]; [11]
  IC50: 4.68 nM
[4]; [12]
  IC50: 3.47 nM
E. coli ATCC 25922
  MIC: 0.125 µg/mL (≈ 0.319 µM)
[2]
  Ki: 690 ± 40 nM
[2]; [DBO] 0.04 µM
  kobs: 0.150 ± 0.002
[2]; [DBO] 0.16 µM
  kobs: 0.183 ± 0.002
[2]; [DBO] 0.31 µM
  kobs: 0.246 ± 0.002
[2]; [DBO] 0.63 µM
  kobs: 0.357 ± 0.003
[5]; [13]
  IC50: 34.7 nM
[5]; [14]
  IC50: 17 nM
[5]; [15]
  IC50: 16.6 nM
[5]; [16]
  IC50: 8.13 nM
[5]; [17]
  IC50: 8.71 nM
[5]; [18]
  IC50: 5.75 nM
[5]; [19]
  IC50: 3.89 nM
[5]; [20]
  IC50: 5.25 nM
[5]; [21]
  IC50: 4.37 nM
[3]
  MIC: ≤ 0.25 µg/mL

## O=C(NC1CCNCC1)[C@@H]1CC[C@@H]2CN1C(=O)N2OS(=O)(=O)O [REL, relebactam]
PDC-3
  k2/K: 46 ± 5 (M-1s-1) x 10 3
  t1/2: 13 ± 4 min
[1]
  MIC: 128 µg/mL (≈ 367 µM)
ADC-7
  k2/K: 7.8 ± 0.8 (M-1s-1) x 10 3
  t1/2: 39 ± 4 min
[4]; [8]
  IC50: 245 nM
[4]; [9]
  IC50: 107 nM
[4]; [10]
  IC50: 34.7 nM
[4]; [11]
  IC50: 20.4 nM
[4]; [12]
  IC50: 3.89 nM
E. coli ATCC 25922
  MIC: > 64 µg/mL
[2]
  Ki: 7100 ± 300 nM
[2]; [DBO] 0.04 µM
  kobs: 0.134 ± 0.007
[2]; [DBO] 0.16 µM
  kobs: 0.138 ± 0.003
[2]; [DBO] 0.31 µM
  kobs: 0.136 ± 0.002
[2]; [DBO] 0.63 µM
  kobs: 0.143 ± 0.002
[2]; [DBO] 1.25 µM
  kobs: 0.167 ± 0.005
[2]; [7]
  kobs: 0.314 ± 0.012
[5]; [13]
  IC50: 166 nM
[5]; [14]
  IC50: 158 nM
[5]; [15]
  IC50: 115 nM
[5]; [16]
  IC50: 63.1 nM
[5]; [17]
  IC50: 49 nM
[5]; [18]
  IC50: 17.4 nM
[5]; [19]
  IC50: 13.2 nM
[5]; [20]
  IC50: 4.17 nM
[5]; [21]
  IC50: 10.5 nM
[3]
  MIC: 128 µg/mL (≈ 367 µM)
